In one experiment the test system is hESC. The following applies: cited from earlier work.
The subject of a further experiment is hES cells. In words: ES cell aggregation under different conditions (EB formation by centrifugation, Example 1). In kind it is cell-based, human. The conditions noted are these: inducer at 0.1 mg/ml (each protein). The text has this:
Our investigations have shown that two elements when added to the hESC suspensions are sufficient to allow re-aggregation in the absence of MEF or other feeder cells. These two elements are the extracellular matrix proteins laminin and nidogen (Table 1 and FIG. 1A).
By adding human laminin and nidogen complex into suspensions of pure hES cells, cells or products of non-human origin can be completely avoided in the re-aggregation of hESC and the subsequent generation of EB. Laminin binds to the surface of hES cells through the specific receptor integrin α6 β1. […] Nidogen cross-links large molecules of laminin attached to the hES cell receptors into complex three-dimensional structures. When a laminin-nidogen mix is added to a hES cell suspension, highly viable EBs can be generated from as little as 100 hES cells (FIG. 1B).
Using our method, undifferentiated hES cells are prepared as a single cell suspension, plated (at the desired number of cells) into low attachment round bottom 96 well plates and then re-aggregated to form EBs using centrifugation in the presence of the laminin-nidogen complex. hEBs formed in this way have excellent viability, are of uniform size and contain all three germ layers (ectoderm, mesoderm and endoderm)—that can in turn be induced to generate more differentiated tissue. The simplicity of this method of hEB generation reduces the variability inherent in culture systems that require cellular components (such as MEFs) or other complex media. The simplicity of the system also facilitates the testing of variables that affect differentiation of hEB into different tissue types and improves the quantitation of any effects seen. This system may also be used for generation of chimeric EBs when different cell types (e.g., hES cells transduced with fluorescent tag can be mixed with non-transduced hES cells and re-aggregated into one EB with subsequent tracking of progenies arising from the labeled cells.

A further experiment has as its system hESC lines H1 and H9. Briefly: hESC re-aggregation and EB formation, MEF-free modified spin EB method (Example 2). In kind it is cell-based, human. The procedure:
To generate MEF-free EBs, a modification of the “spin EB” method was used (8, 9). Colonies of H1 and H9 hESC (WiCell Inc) (passage 36-50) were cut into uniformed sized pieces using StemProEZPassage tool, transferred onto 6-well plates coated for 1 hour with Matrigel (growth factor reduced, no phenol red; BD Bioscience), and cultured in MEF-conditioned hESC media supplemented with 4 ng/ml FGF2. Pre-culture on Matrigel increases aggregation capacity of hESC (data not shown). After 24 hours, colonies were digested with Tryple Select into a single cell suspension, incubated with SSEA4 antibody, and SSEA4 positive cells sorted with FACS as described above. Before the sorting step 2-3% of the cells in suspension were represented by MEFs and 97-98% by hESC. After sorting, purity of hESC in the preparation was >99.9% as was measured with SSEA4 staining by FACS. These purified hESC were centrifuged at 1400 RPM and the resulting pellet was resuspended in previously described differentiation media, transferred into low attachment round-bottom 96 well culture plates (Nunc, Rochester, N.Y.) and centrifuged at 1400 RPM for 7 min with or without inducers of aggregation. To test the effects on cell aggregation, a mixture of ECMs in the form of Matrigel (5, 25, 100, 200, μg/ml) a solubilized basement membrane preparation extracted from the Engelbreth-Holm-Swarm (EHS) mouse sarcoma; murine laminin-111 and nidogen-1 complex (5, 25, 100, 200 μg/ml) from EHS sarcoma; or purified human collagen IV (1, 5, 25, 50 μg/ml) (all from BD Bioscience); human laminin-511 (1,5, 25, 50 μg/ml) (Sigma-Aldrich) and human nidogen-1 (1,5, 25, 50 μg/ml) (R&D systems) were added to the cell suspension prior to centrifugation. For directed differentiated of the EBs, differentiation media was supplemented with human vascular endothelial growth factor (VEGF), FGF2, bone morphogenic protein 4 (BMP4), or Wnt3a (all at 10 ng/ml; R&D systems) or FCS (Omega Scientific Inc. Tarzana, Calif.), prior to the final centrifugation step dependent upon experimental design.
Lower concentrations were not sufficient to aggregate all cells in the well. Higher concentrations of Matrigel increased viscosity and blocked efficient pellet formation during centrifugation.
To further dissect the mechanisms of hESC aggregation, the key ECM proteins were tested individually at a range of concentrations with regards to their capacity to assemble dispersed hESC into EBs. […] Thus, the presence of both laminin (either 111 or 511) and nidogen-1 was required for hESC aggregation.

The next experiment has as its system LN-EBs from hESC. In words: Germ layer differentiation of LN-EBs (immunohistochemistry for nestin, CD34, alpha-fetoprotein). In kind it is cell-based, human. On the procedure:
FIG. 4: Generation of ectodermal, mesodermal and endodermal derivatives in the “LN-EB” system. “LN-EBs” were generated with the laminin-nidogen complex and in the presence of media designed for specific germ layer differentiation. A. For induction of ectodermal derivatives, serum-free media was supplemented with Wnt3a (10 ng/ml); B. Addition of BMP4, FGF2, VEGF (all 10 ng/ml) to serum-free medium induced formation of endodermal and mesodermal derivatives. C. Addition of 10% FCS, with no exogenous growth factors, induced synchronous generation of the all three germ layers. D. Standard EBs cultured in medium supplemented with 10% FCS. E. Control EBs cultured in serum-free media with no exogenous growth factors. F. No primary antibody control of immunostaining. Immunohistochemical detection of ectoderm, mesoderm and endoderm formation was assessed using antibodies for nestin (left column), CD34 (middle column) and alpha-fetoprotein (right column) respectively. Antigen expression is shown in brown color. Nuclei are stained with hematoxylin (blue). Magnification: 200×. […]
To generate MEF-free EBs, a modification of the “spin EB” method was used (8, 9). […] After sorting, purity of hESC in the preparation was >99.9% as was measured with SSEA4 staining by FACS. […]

[1] abbreviates: added individually as single agents at a range of concentrations.

For `C[C@@H](N)[C@H]1CC[C@H](C(=O)Nc2ccncc2)CC1` [Y-27632], the “aggregation and EB formation of dissociated hESC” value with hESC (10 μM) was “aggregate and form EBs”. Besides, the “survival of hESC after dissociation to single cells” value in the experiment with hESC is reported as “promote the survival”.

On to “Collagen IV: extracellular matrix protein collagen IV”, for which the Aggregation result with hES cells is given as “−”.

Fibronectin: the Aggregation result in the experiment with hES cells is reported as “−”.

Turning to Laminin, the Aggregation result in the experiment on hES cells is recorded as “+ (+ means very little aggregation)”.

As for “human collagen-IV: purified human collagen IV (BD Bioscience) [reference compound]”, the hESC aggregation result in the experiment with hESC lines H1 and H9 (setting [1]) is “No aggregation”.

In the case of “human laminin-511 complexed with human nidogen-1: ultrapure human laminin-511 complexed with human nidogen-1, ratio laminin to nidogen 9:1”, the hESC aggregation result in the experiment on hESC lines H1 and H9 (laminin-511 9-22.5 μg/ml with nidogen-1 1-2.5 μg/ml, ratio laminin to nidogen 9:1) is given as “robust aggregation”.

As to “human laminin-511: human laminin-α5β1γ1 heterotrimer (Sigma-Aldrich)”, the hESC aggregation entry in the experiment with hESC lines H1 and H9 (setting [1]) is “minimal aggregation”.

For the molecule “murine laminin-111-nidogen-1 complex: murine laminin-111 and nidogen-1 complex from EHS sarcoma”, the hESC aggregation entry in the experiment on hESC lines H1 and H9 (100-200 μg/ml, MEF-free single cell suspension, after centrifugation) is reported as “robust aggregation”.

B1: Wnt3a: morphogen Wnt3a, 10 ng/ml (R&D systems) (protein, UniProt P56704 19-352, looked up)
Protein Wnt-3a: SYPIWWSLAVGPQYSSLGSQPILCASIPGLVPKQLRFCRNYVEIMPSVAEGIKIGIQECQHQFRGRRWNCTTVHDSLAIFGPVLDKATRESAFVHAIASAGVAFAVTRSCAEGTAAICGCSSRHQGSPGKGWKWGGCSEDIEFGGMVSREFADARENRPDARSAMNRHNNEAGRQAIASHMHLKCKCHGLSGSCEVKTCWWSQPDFRAIGDFLKDKYDSASEMVVEKHRESRGWVETLRPRYTYFKVPTERDLVYYEASPNFCEPNPETGSFGTRDRTCNVSSHGIDGCDLLCCGRGHNARAERRREKCRCVFHWCCYVSCQECTRVYDVHTCK
In the case of B1, the “germ layer derivatives suppressed in LN-EBs” value in the experiment with LN-EBs from hESC (serum-free medium, growth factors 10 ng/ml) was “formation of meso-endodermal derivatives labeled with CD34 and alpha-fetoprotein respectively was almost completely abolished”. Moreover, in the experiment with LN-EBs from hESC (supplement in medium (growth factors 10 ng/ml serum-free, or 10% FCS), day 15), the “germ layer derivatives formed in LN-EBs” value is “neuro-ectodermal epithelial cells that expressed nestin and formed solid neural tube-like structures were efficiently induced”.

B2: nidogen-1: human nidogen-1 linker protein (R&D systems) (protein, UniProt P14543 29-1247, looked up)
Nidogen-1: LSRQELFPFGPGQGDLELEDGDDFVSPALELSGALRFYDRSDIDAVYVTTNGIIATSEPPAKESHPGLFPPTFGAVAPFLADLDTTDGLGKVYYREDLSPSITQRAAECVHRGFPEISFQPSSAVVVTWESVAPYQGPSRDPDQKGKRNTFQAVLASSDSSSYAIFLYPEDGLQFHTTFSKKENNQVPAVVAFSQGSVGFLWKSNGAYNIFANDRESVENLAKSSNSGQQGVWVFEIGSPATTNGVVPADVILGTEDGAEYDDEDEDYDLATTRLGLEDVGTTPFSYKALRRGGADTYSVPSVLSPRRAATERPLGPPTERTRSFQLAVETFHQQHPQVIDVDEVEETGVVFSYNTDSRQTCANNRHQCSVHAECRDYATGFCCSCVAGYTGNGRQCVAEGSPQRVNGKVKGRIFVGSSQVPIVFENTDLHSYVVMNHGRSYTAISTIPETVGYSLLPLAPVGGIIGWMFAVEQDGFKNGFSITGGEFTRQAEVTFVGHPGNLVIKQRFSGIDEHGHLTIDTELEGRVPQIPFGSSVHIEPYTELYHYSTSVITSSSTREYTVTEPERDGASPSRIYTYQWRQTITFQECVHDDSRPALPSTQQLSVDSVFVLYNQEEKILRYALSNSIGPVREGSPDALQNPCYIGTHGCDTNAACRPGPRTQFTCECSIGFRGDGRTCYDIDECSEQPSVCGSHTICNNHPGTFRCECVEGYQFSDEGTCVAVVDQRPINYCETGLHNCDIPQRAQCIYTGGSSYTCSCLPGFSGDGQACQDVDECQPSRCHPDAFCYNTPGSFTCQCKPGYQGDGFRCVPGEVEKTRCQHEREHILGAAGATDPQRPIPPGLFVPECDAHGHYAPTQCHGSTGYCWCVDRDGREVEGTRTRPGMTPPCLSTVAPPIHQGPAVPTAVIPLPPGTHLLFAQTGKIERLPLEGNTMRKTEAKAFLHVPAKVIIGLAFDCVDKMVYWTDITEPSIGRASLHGGEPTTIIRQDLGSPEGIAVDHLGRNIFWTDSNLDRIEVAKLDGTQRRVLFETDLVNPRGIVTDSVRGNLYWTDWNRDNPKIETSYMDGTNRRILVQDDLGLPNGLTFDAFSSQLCWVDAGTNRAECLNPSQPSRRKALEGLQYPFAVTSYGKNLYFTDWKMNSVVALDLAISKETDAFQPHKQTRLYGITTALSQCPQGHNYCSVNNGGCTHLCLATPGSRTCRCPDNTLGVDCIEQK
In the case of B2, the hESC aggregation result with hESC lines H1 and H9 (setting [1]) is “minimal aggregation”.

These data come from US20100129910A1, “Cell matrix related compositions and their use for generating embryoid bodies” (priority 2008, published 2010).
